From patent US10174011B2, “Heterocyclic compounds, process for preparation of the same and use thereof” (SHANGHAI INSTITUTE OF MATERIA MEDICA, CHINESE ACADEMY OF …, priority 2014, dated 2019) come the findings set out here.

For experiment [1], the system named is PCP-induced hyperactivity in mice. Kind of experiment: In vivo efficacy test (PCP-induced high locomotor activity in mice). To be noted: male ICR mice, oral administration 45 minutes before PCP 7 mg/kg i.p.; dose significantly reducing PCP-induced hyperactivity vs model group. The method, then: 5) In Vivo Efficacy Test (PCP-Induced High Locomotor Activity in Mice)
PCP solution was prepared in a suitable concentration for 7 mg/kg dosage with saline. […] Male ICR mice (18-22 g) were used as test animals. All the test mice were randomly divided into vehicle control group, model control group, positive control group, and treatment group(8 mice per group). Mice of each group were orally administered test compounds or vehicle. After 45 minutes PCP solution was administered (7 mg/kg) through intraperitoneal injection. The mice track after drug or saline administration was recorded and analyzed by the spontaneous, open-field video analysis system. […] The mice track was recorded and analyzed by the spontaneous, open-field video analysis system. The total distance in each group was calculate and expressed as mean+SD and statistical evaluation was performed by one way ANOVA.

For experiment [2], the target named is human recombinant 5-HT1A receptor (Homo sapiens (Human), UniProt P08908). Kind of experiment: 5-HT1A receptor agonism activity test (inhibition of cAMP production, LANCE cAMP 384 Kit). The format is cell-based. To be noted: HEK293 cells expressing human recombinant 5-HT1A receptor; test concentration 0.1 nM-10000 nM; read-out: 5-HT1A receptor agonism (EC50, mol/L). The source says: Pharmacological Test 1) 5-HT1A Receptor Agonism Activity Test
human recombinant 5-HT1A receptor, sequence (P08908 whole entry): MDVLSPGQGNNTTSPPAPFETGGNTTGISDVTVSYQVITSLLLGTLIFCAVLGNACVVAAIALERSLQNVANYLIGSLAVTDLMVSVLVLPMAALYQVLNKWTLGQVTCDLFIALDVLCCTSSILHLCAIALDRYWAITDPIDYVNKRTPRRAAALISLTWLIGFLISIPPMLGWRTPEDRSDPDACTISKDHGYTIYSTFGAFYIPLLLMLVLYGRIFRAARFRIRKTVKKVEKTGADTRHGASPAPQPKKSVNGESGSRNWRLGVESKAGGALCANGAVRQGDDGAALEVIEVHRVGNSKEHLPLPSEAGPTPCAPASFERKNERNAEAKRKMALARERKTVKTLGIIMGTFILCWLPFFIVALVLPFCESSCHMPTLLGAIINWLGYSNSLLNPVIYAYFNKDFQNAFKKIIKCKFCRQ
A general note: Cyclic AMP is a second messenger, typically raised through Gs and lowered through Gi signalling.

Experiment [3] deals with human recombinant D2 receptor (Homo sapiens (Human), UniProt P14416). Kind of experiment: D2 receptor antagonism activity test (inhibition of dopamine-induced decrease of cAMP production, LANCE cAMP 384 Kit). To be noted: read-out: D2 receptor antagonism (IC50, mol/L), HEK293 cells expressing human recombinant D2 receptor, 0.1 nM-10000 nM.
human recombinant D2 receptor, sequence (P14416 whole entry): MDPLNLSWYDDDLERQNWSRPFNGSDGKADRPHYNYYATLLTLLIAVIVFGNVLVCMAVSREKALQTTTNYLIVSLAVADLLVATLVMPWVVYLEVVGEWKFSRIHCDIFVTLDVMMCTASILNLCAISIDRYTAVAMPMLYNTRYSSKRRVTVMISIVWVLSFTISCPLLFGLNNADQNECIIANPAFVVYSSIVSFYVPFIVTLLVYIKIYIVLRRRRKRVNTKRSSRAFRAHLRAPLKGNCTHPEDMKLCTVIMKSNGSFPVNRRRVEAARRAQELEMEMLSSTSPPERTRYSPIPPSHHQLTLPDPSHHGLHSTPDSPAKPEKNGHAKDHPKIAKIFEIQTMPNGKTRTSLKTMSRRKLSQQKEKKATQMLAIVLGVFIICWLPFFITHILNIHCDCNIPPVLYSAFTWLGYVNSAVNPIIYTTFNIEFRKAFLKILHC
Experiment [4] concerns the target human recombinant 5-HT2A receptor (Homo sapiens (Human), UniProt P28223). Kind of experiment: 5-HT2A receptor antagonism activity test (FLIPR Calcium 5 Assay Kit). To be noted: read-out: 5-HT2A receptor antagonism (IC50, mol/L); CHO-K1 cells expressing human recombinant 5-HT2A receptor; α-methyl-5-hydroxytryptamine 300 nM; 0.1 nM-10000 nM.

human recombinant 5-HT2A receptor, sequence (P28223 whole entry): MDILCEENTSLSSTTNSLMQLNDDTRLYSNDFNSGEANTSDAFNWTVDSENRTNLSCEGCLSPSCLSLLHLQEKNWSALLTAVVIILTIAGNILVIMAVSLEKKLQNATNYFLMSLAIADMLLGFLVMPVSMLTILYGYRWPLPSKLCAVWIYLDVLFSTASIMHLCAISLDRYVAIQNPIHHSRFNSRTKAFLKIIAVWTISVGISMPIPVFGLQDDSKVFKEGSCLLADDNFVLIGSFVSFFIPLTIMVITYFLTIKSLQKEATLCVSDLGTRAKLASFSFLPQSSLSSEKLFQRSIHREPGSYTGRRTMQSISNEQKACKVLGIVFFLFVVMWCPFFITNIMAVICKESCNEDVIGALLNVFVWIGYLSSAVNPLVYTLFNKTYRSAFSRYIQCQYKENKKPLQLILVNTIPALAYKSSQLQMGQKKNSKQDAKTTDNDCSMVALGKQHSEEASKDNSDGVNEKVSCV

`COc1cc2c(N3CCN(CCc4ccc5c(c4)CCC(=O)N5)CC3)cccc2s1` [Compound of example 89, 6-(2-(4-(2-methoxybenzo[b]thiophen-4-yl)piperazin-1-yl)ethyl)-3,4-dihydroquinolin-2(1H)-one]: the “Effective dose” value in experiment [1] was determined as 1 mg/kg. For the same molecule, in experiment [2], the EC50 came to 1.29 nM. For the same molecule, the IC50 in experiment [3] came to 8.06 nM; in experiment [4], 1050 nM.

In the case of `O=c1ccc2ccc(CCN3CCN(c4cc(F)cc5sccc45)CC3)cc2[nH]1` [Compound of example 102, 7-(2-(4-(6-fluorobenzo[b]thiophen-4-yl)piperazin-1-yl)ethyl)quinolin-2(1H)-one], in experiment [1], the “Effective dose” value turned out to be 3 mg/kg. The EC50 in experiment [2] came out at 3.29 nM. For the same molecule, the IC50 in experiment [3] turned out to be 106 nM; in experiment [4], 1900 nM.

Regarding `O=C1Cc2cc(CCCCN3CCN(c4cccc5sccc45)CC3)ccc2N1` [Compound of example 112, 5-(4-(4-(benzo[b]thiophen-4-yl)piperazin-1-yl)butyl)indolin-2-one], the “Effective dose” value in experiment [1] came to 1 mg/kg. The EC50 in experiment [2] worked out at 34.6 nM. Besides, the IC50 turned out to be 28.1 nM in experiment [3] and 257 nM in experiment [4].

As to `O=C1COc2ccc(CCCCN3CCN(c4cccc5sccc45)CC3)cc2N1` [Compound of example 137, 6-(4-(4-(benzo[b]thiophen-4-yl)piperazin-1-yl)butyl)-2H-benzo[b][1,4]oxazin-3(4H)-one], the “Effective dose” value in experiment [1] came out at 3 mg/kg. Besides, the EC50 in experiment [2] came to 1.81 nM. In addition, the values for the IC50 in experiment [3] and in experiment [4] were 30.2 nM and 711 nM, respectively.
